Key:
[1] = molecular target: PARG (389-976) (Homo sapiens (Human), UniProt Q86W56); assay: PARG enzyme inhibition assay (TR-FRET); type: biochemical
Experimental: PARG Enzyme Inhibition Assay
PARG in vitro assays were conducted in standard 384-well plates in a total volume of 15 μL.

[2] = molecular target: PARG (Homo sapiens (Human), UniProt Q86W56); assay: PARG cell inhibition assay (PAR staining after H2O2); type: cell-based; conditions: UWB1.289 cells; value in brackets
Experimental: PARG Cell Inhibition Assay
UWB1.289 cells were used and the medium was 50% MEBM+50% 1640+3% FBS+1×PS. The cells were cultured according to ATCC standard operation and the cells were assayed in exponential growth phase for the experiment. Re-suspend cell in medium to a proper concentration, only cells with viability greater than 90% are used for assays.
Seed cells UWB1.289 in each culture medium, incubate overnight at 37° C., 5% CO2.
Test compounds was diluted with DMSO in gradient. Add test compound in cell plate, incubate at 37° C.
Add compounds and H2O2 mixture into cell plate, incubate at 37° C. Use 100 nM PDD00017273 as positive control.
Remove solution and recovery cell, incubate at 37° C.
Remove solution in the plate and add Cold-MeOH, incubate at −20° C.
Add blocking buffer into cell plate, incubate at RT.
Add PAR mAb, incubate at 4° C. overnight.
Add secondary antibody and DNA stain DRAQ5, incubate at RT.
Wash 3 times with PBST and 2 times with PBS. Turn plate upside down and centrifuge 1000 rpm 1 min.
Scan plate using LI-COR for best result.
Calculate the % inhibition according to the following formula: % inhibition=(compound signal value−negative control signal average)/(positive control signal average−negative control signal average)×100. Use the formula Y=Bottom+(Top−Bottom)/(1+10^((Log IC50−X)*HillSlope)) to fit the curve to obtain the IC50 values.

Chain of PARG (389-976) (Q86W56 389-976): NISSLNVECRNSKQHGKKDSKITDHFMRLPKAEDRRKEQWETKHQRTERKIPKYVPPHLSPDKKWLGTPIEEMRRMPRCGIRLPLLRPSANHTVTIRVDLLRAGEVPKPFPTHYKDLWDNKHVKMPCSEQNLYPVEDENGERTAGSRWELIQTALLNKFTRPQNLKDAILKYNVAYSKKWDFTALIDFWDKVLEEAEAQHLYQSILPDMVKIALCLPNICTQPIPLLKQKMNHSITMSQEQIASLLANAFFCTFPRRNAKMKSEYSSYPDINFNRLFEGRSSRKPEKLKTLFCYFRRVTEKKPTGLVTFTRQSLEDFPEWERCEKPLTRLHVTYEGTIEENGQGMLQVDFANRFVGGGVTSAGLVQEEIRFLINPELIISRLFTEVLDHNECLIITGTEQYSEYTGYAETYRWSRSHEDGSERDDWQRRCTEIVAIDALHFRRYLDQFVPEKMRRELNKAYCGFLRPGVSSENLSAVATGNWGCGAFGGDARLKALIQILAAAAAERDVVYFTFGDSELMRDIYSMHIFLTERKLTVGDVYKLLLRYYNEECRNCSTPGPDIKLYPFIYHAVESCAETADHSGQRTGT
Chain of PARG (Q86W56 whole entry): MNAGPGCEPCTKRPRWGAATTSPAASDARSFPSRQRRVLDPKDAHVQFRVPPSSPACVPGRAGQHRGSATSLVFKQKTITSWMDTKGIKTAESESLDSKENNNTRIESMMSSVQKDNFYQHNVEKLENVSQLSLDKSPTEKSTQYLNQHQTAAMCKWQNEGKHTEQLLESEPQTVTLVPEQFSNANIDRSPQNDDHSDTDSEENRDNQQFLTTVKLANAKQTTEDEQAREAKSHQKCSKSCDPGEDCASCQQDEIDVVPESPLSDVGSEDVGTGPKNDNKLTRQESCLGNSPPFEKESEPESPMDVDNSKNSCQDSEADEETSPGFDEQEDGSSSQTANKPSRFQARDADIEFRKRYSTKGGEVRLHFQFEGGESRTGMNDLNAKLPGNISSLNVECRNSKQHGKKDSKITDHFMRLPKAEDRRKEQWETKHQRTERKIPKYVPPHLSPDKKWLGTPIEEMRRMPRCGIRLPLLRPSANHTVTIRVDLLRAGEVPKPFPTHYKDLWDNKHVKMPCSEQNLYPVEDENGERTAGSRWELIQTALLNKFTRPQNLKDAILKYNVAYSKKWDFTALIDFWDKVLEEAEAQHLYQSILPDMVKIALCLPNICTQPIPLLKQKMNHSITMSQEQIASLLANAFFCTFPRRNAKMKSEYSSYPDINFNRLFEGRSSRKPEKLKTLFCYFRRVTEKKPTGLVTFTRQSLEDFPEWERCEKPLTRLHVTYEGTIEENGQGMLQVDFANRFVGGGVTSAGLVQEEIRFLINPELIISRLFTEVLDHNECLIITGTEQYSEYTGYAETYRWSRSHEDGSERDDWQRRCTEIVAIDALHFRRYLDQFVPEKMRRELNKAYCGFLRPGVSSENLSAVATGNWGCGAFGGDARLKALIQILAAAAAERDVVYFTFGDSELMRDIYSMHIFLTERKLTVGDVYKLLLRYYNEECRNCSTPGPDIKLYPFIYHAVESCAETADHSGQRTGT

| SMILES | IC50 ([1]; Table 2, class symbol) [nM] | IC50 ([1]; Table 3, class symbol) [nM] | further results |
| --- | --- | --- | --- |
| CC(C)C(=O)N1CCN(c2cc(S(=O)(=O)NC3(C)CC3)cc3c(-c4nnc(C(F)F)s4)n[nH]c23)CC1 [Compound 3] |  |  | IC50 ([1]; Table 1, class symbol): < 100 nM; IC50 ([1]; Table 1, value in brackets): 1 nM; IC50 [2]: 9.6 nM |
| CC(C)C(=O)N1CCN(c2cc(S(=O)(=O)NC3(C#N)CC3)cc3c(-c4nnc(C(F)F)s4)nn(C)c23)CC1 [Compound 17] | < 100 |  | IC50 ([1]; Table 2, value in brackets): 0.6 nM; IC50 [2]: 3.6 nM |
| Cc1nc(C)c(Cn2nc(-c3nnc(C(F)F)s3)c3cc(S(=O)(=O)NC4(C)CC4)ccc32)s1 [compound 1, reference compound] |  |  | IC50 ([1]; Table 1, value in brackets): 1.9 nM; IC50 [2]: 14.7 nM |
| CC(C)C(=O)N1CCN(c2cc(S(=O)(=O)NC3(C)CC3)cc3c(-c4nnc(C(F)F)s4)nn(C)c23)CC1 [Compound 5] |  |  | IC50 ([1]; Table 1, class symbol): < 100 nM; IC50 ([1]; Table 1, value in brackets): 0.5 nM; IC50 [2]: 3.1 nM |
| Cc1cc(Cn2c(=O)n(Cc3cnc(C)s3)c(=O)c3cc(S(=O)(=O)NC4(C)CC4)ccc32)n(C)n1 [PDD00017273, reference compound] |  | < 100 | IC50 [2]: 13.4 nM |
| CC(C)C(=O)N1CC=C(c2cc(S(=O)(=O)NC3(C#N)CC3)cc3c(-c4nnc(C(F)F)s4)nn(C[C@@H](O)CO)c23)CC1 [Compound 136] |  | < 100 |  |
| CC(C)C(=O)N1CCN(c2cc(S(=O)(=O)NC3(C)CC3)cc3c(-c4nnc(C(F)F)s4)nn(C)c23)C[C@@H]1C [Compound 82] |  | < 100 |  |
| Cn1nc(-c2nnc(C(F)F)s2)c2cc(S(=O)(=O)NC3(C#N)CC3)cc(N3CCC(O)CC3)c21 [Compound 42] | < 100 |  |  |
| C[C@H](O)C(=O)N1C2CCC1CN(c1cc(S(=O)(=O)NC3(C#N)CC3)cc3c(-c4nnc(C(F)F)s4)nn(C)c13)C2 [Compound 72] |  | < 100 |  |
| Cn1nc(-c2nnc(C(F)F)s2)c2cc(S(=O)(=O)NC3(C#N)CC3)cc(C3=CCC(C(=O)N4CCCC4)CC3)c21 (stereo not drawn) [Compound 137] |  | < 100 |  |
| CCn1nc(-c2nnc(C(F)F)s2)c2cc(S(=O)(=O)NC3(C)CC3)c(F)c(N3CCN(C(=O)C(C)C)CC3)c21 [Compound 67] |  | < 100 |  |
| CC(C)C(=O)N1CCN(c2cc(S(=O)(=O)NC3(C#N)CC3)cc3c(-c4nnc(C(F)F)s4)n[nH]c23)CC1 [Compound 18] | < 100 |  | IC50 ([1]; Table 2, value in brackets): 0.9 nM |
| Cn1nc(-c2nnc(C(F)F)s2)c2cc(S(=O)(=O)NC3(C#N)CC3)cc(-c3ccccc3)c21 [Compound 28] | < 100 |  |  |
| CC(C)C(=O)N1CC=C(c2cc(S(=O)(=O)NC3(C#N)CC3)cc3c(-c4nnc(C(F)F)s4)nn(CC(F)(F)F)c23)CC1 [Compound 107] |  | < 100 |  |
| CC(C)C(=O)N1C2C=C(c3cc(S(=O)(=O)NC4(C#N)CC4)cc4c(-c5nnc(C(F)F)s5)nn(C)c34)CC1CC2 (stereo not drawn) [Compound 120] |  | < 100 |  |
| CC(C)C(=O)N1CC2CCC(C1)N2c1cc(S(=O)(=O)NC2(C#N)CC2)cc2c(-c3nnc(C(F)F)s3)nn(C)c12 [Compound 101] |  | < 100 |  |
| Cn1nc(-c2nnc(C(F)F)s2)c2cc(S(=O)(=O)NC3(C#N)CC3)cc(N3CCN(c4cccnn4)CC3)c21 [Compound 41] | < 100 |  |  |
| Cc1nc(C)c(Cn2nc(-c3nnc(C(F)F)s3)c3cc(S(=O)(=O)NC4(CF)CC4)ccc32)s1 [Compound 4] |  |  | IC50 ([1]; Table 1, class symbol): < 100 nM |
| C[C@H](O)C(=O)N1CCC(c2cc(S(=O)(=O)NC3(C#N)CC3)cc3c(-c4nnc(C(F)F)s4)nn(C)c23)CC1 [Compound 114] |  | < 100 |  |
| CCn1nc(-c2nnc(C(F)F)s2)c2cc(S(=O)(=O)NC3(C#N)CC3)cc(N3CCN(C(=O)C(C)C)CC3)c21 [Compound 26] | < 100 |  |  |
| CN(C)C(=O)c1ccc(-c2cc(S(=O)(=O)NC3(C#N)CC3)cc3c(-c4nnc(C(F)F)s4)nn(C)c23)cc1 [Compound 132] |  | < 100 |  |
| CC1(NS(=O)(=O)c2ccc3c(c2)c(-c2nnc(C(F)F)s2)nn3Cc2ccc3cn[nH]c3c2)CC1 [Compound 58] | < 100 |  |  |

| SMILES | IC50 ([1]; Table 2, class symbol) [nM] | IC50 ([1]; Table 3, class symbol) [nM] | further results |
| --- | --- | --- | --- |
| CC(C)C(=O)N1C2CCC1CN(c1cc(S(=O)(=O)NC3(C#N)CC3)cc3c(-c4nnc(C(F)F)s4)nn(CC#N)c13)C2 [Compound 122] |  | < 100 |  |
| Cn1nc(-c2nnc(C(F)F)s2)c2cc(S(=O)(=O)NC3(C#N)CC3)cc(N3CCC4(CC3)COC4)c21 [Compound 46] | < 100 |  | IC50 ([1]; Table 2, value in brackets): 0.9 nM |
| Cn1nc(-c2nnc(C(F)F)s2)c2cc(S(=O)(=O)NC3(C#N)CC3)cc(N3CCN(C(=O)N4CCCC4)CC3)c21 [Compound 51] | < 100 |  |  |
| C[C@H](N)C(=O)N1CCN(c2cc(S(=O)(=O)NC3(C#N)CC3)cc3c(-c4nnc(C(F)F)s4)nn(CC(F)(F)F)c23)CC1 [Compound 111] |  | < 100 |  |
| Cc1nc(C)c(Cn2nc(-c3nnc(C(F)F)s3)c3cc(S(=O)(=O)NC4(C)CC4)c(F)cc32)s1 [Compound 13] | < 100 |  |  |
| CC(C)C(=O)N1C2CCC1CN(c1cc(S(=O)(=O)NC3(C)CC3)cc3c(-c4nnc(C(F)F)s4)nn(C)c13)C2 [Compound 65] | < 100 |  |  |
| C[C@H]1CN(c2cc(S(=O)(=O)NC3(C#N)CC3)cc3c(-c4nnc(C(F)F)s4)nn(C)c23)CCN1C(=O)N(C)C [Compound 71] |  | < 100 |  |
| CCn1nc(-c2nnc(C(F)F)s2)c2cc(S(=O)(=O)NC3(C#N)CC3)cc(N3CC4CCC(C3)N4C(=O)C(C)C)c21 [Compound 93] |  | < 100 |  |
| Cc1nc(C)c(Cn2nc(-c3nnc(C(F)F)s3)c3nc(S(=O)(=O)NC4(C)CC4)ccc32)s1 [Compound 11] |  |  | IC50 ([1]; Table 1, class symbol): 100 to 1000 nM |
| N#CC1(NS(=O)(=O)c2ccc3c(c2)c(-c2nnc(C(F)F)s2)nn3Cc2ccc(F)cc2)CC1 [Compound 57] | < 100 |  |  |
| CC1(NS(=O)(=O)c2ccc3c(c2)c(-c2nnc(C(F)F)s2)nn3Cc2ccc3cncn3c2)CC1 [Compound 59] | < 100 |  |  |
| CC(C)C(=O)N1CCN(c2cc(S(=O)(=O)NC3(C)CC3)cc3c(-c4nnc(C(F)F)s4)nn(C(C)C)c23)CC1 [Compound 16] | < 100 |  |  |
| Cc1nc(C)c(Cn2nc(-c3nnc(C(F)F)s3)c3cc(S(=O)(=O)NC4(C)CC4)cc(C(F)(F)F)c32)s1 [Compound 10] |  |  | IC50 ([1]; Table 1, class symbol): 100 to 1000 nM |
| CC(C)C(=O)N1CCN(c2cc(S(=O)(=O)NC3(C)CC3)cc3c(-c4nnc(C(F)F)s4)nn(C4CC4)c23)CC1 [Compound 21] | < 100 |  |  |
| CCC(C)C(=O)N1CCN(c2cc(S(=O)(=O)NC3(C#N)CC3)cc3c(-c4nnc(C(F)F)s4)nn(C)c23)CC1 (stereo not drawn) [Compound 50] | < 100 |  |  |
| CC(C)C(=O)N1CCN(c2cc(S(=O)(=O)NC3(C)CC3)cc3c(-c4nnc(C(F)F)s4)csc23)CC1 [Compound 64] | < 100 |  |  |
| C[C@H](N)C(=O)N1C2CCC1CN(c1cc(S(=O)(=O)NC3(C#N)CC3)cc3c(-c4nnc(C(F)F)s4)nn(C)c13)C2 [Compound 73] |  | < 100 |  |
| Cn1nc(-c2nnc(C(F)F)s2)c2cc(S(=O)(=O)NC3(C#N)CC3)cc(-c3ccncn3)c21 [Compound 31] | < 100 |  |  |
| O=S(=O)(NC1(CF)CC1)c1ccc2c(c1)c(-c1nnc(C(F)F)s1)nn2CC1CC1 [Compound 12] |  |  | IC50 ([1]; Table 1, class symbol): < 100 nM |
| CC(C)C(=O)N1C2CCC1CC(c1cc(S(=O)(=O)NC3(C#N)CC3)cc3c(-c4nnc(C(F)F)s4)nn(C)c13)C2 (stereo not drawn) [Compound 127] |  | < 100 |  |
| Cn1nc(-c2nnc(C(F)F)s2)c2cc(S(=O)(=O)NC3(C#N)CC3)cc(N3CCC(C(=O)N4CCCC4)CC3)c21 [Compound 89] |  | < 100 |  |
| CC(C)C(=O)N1CCN(c2cc(S(=O)(=O)NC3(C#N)CC3)cc3c(-c4nnc(C(F)F)s4)nn(CC#N)c23)C[C@H]1C [Compound 115] |  | < 100 |  |

Source: patent US20230278998A1, “Compound containing structure of a five-membered heteroaromatic ring, pharmaceutical compositions thereof and applications thereof” (280 Bio, Inc., priority 2022, published 2023)
